Measured values from article PMC9579956 (RSC Medicinal Chemistry, 2022).
Several values for one entry are separate records, joined by “and”; a condition that tells them apart may be missing. Equal values may be shown once. Read-outs that look alike come from different tables or passages of the source.

Key:
[1] = biological target: T1, Mycobacterium thermoresistible (Mtr) LpqY (Mycolicibacterium thermoresistibile, UniProt G7CES0); type: binding; details: for Hit validation Binding score: MST re-evaluation of hits against LpqY; for Validation binding score (MST): quadruplicate, new batch of LpqY
T1 sequence (G7CES0 29-471): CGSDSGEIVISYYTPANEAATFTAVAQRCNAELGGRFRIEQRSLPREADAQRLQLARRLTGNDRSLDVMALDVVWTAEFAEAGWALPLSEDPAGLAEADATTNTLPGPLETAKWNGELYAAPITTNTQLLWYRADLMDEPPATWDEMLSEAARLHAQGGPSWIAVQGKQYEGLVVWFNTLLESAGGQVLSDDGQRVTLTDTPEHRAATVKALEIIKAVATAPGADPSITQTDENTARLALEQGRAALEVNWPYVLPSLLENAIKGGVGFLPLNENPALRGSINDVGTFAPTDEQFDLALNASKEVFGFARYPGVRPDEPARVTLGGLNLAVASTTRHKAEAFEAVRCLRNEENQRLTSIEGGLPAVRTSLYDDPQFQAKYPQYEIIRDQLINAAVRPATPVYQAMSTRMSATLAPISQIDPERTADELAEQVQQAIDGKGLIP

[2] = biological target: T1, Mycobacterium thermoresistible (Mtr) LpqY; type: binding; details: for Screen signal/noise ratio (MST S/N): compound 100 μM, LpqY 500 nM, 10% DMSO, duplicate; for Pathogen Box screen signal/noise ratio: single dose MST screen against LpqY
[3] = Solubility in aqueous buffer (observation in MST affinity assay); type: physicochemical
Excerpt: The top five hits that were commercially available were selected for further characterisation and the binding affinities determined with LpqY (Fig. 4, Table S2 ^†).

[4] = biological target: T1, Mycobacterium thermoresistible (Mtr) LpqY; experiment: Affinity studies with microscale thermophoresis (MST); type: binding; details: for Binding to LpqY (qualitative): Kd could not be determined

Row | Structure (SMILES) | Hit validation Binding score [1] | Validation binding score (MST) [1] | Screen signal/noise ratio (MST S/N) [2] | Pathogen Box screen signal/noise ratio [2] | Validation binding score (MST) ([1]; listed as doxycycline) | Solubility in aqueous buffer [3] | Binding to LpqY (qualitative) ([4]; MST) | Kd [4] [µM] | fold decrease in affinity compared to trehalose ([4]; MST) [fold] | fold increase of affinity (Kd) compared to trehalose ([4]; MST) [fold]
1 | O=C(Nc1cccc(Cl)c1)c1cnc(N2CCN(c3ccncc3)CC2)c(Cl)c1 [MMV024406, 5-chloro-N-(3-chlorophenyl)-6-(4-pyridin-4-ylpiperazin-1-yl)pyridine-3-carboxamide] | 2.3 | 2.3 | 5.2 | 5.2 | – | – | – | – | – | –
2 | C[C@H]1c2cccc(O)c2C(=O)C2=C(O)[C@]3(O)C(=O)C(C(N)=O)=C(O)[C@@H](N(C)C)[C@@H]3[C@@H](O)[C@@H]21 [MMV000011, Doxycycline, reference compound] | 6.5 | 6.5 | 5.8 | 5.8 | > 5 | – | – | – | – | –
3 | COc1ccccc1OCCCCn1c(C2CC2)nc2ccccc21 [MMV676474, 2-cyclopropyl-1-[4-(2-methoxyphenoxy)butyl]benzimidazole] | 6.2 | 6.2 and > 5 | 6.0 | 6.0 | – | – | – | – | – | –
4 | COc1ccccc1C(C)NCC(=O)Nc1cc(C(F)(F)F)ccc1Cl (stereo not shown) [MMV020321, N-[2-chloro-5-(trifluoromethyl)phenyl]-2-[1-(2-methoxyphenyl)ethylamino]acetamide] | 1.9 | 1.9 | 5.5 | 5.5 | – | – | – | – | – | –
5 | CNC(=O)C1Cc2c([nH]c3cc(Cl)ccc23)C2(CCN(CCc3ccccc3)CC2)N1 (stereo not shown) [MMV031011, 7-chloro-N-methyl-1'-(2-phenylethyl)spiro[2,3,4,9-tetrahydropyrido[3,4-b]indole-1,4'-piperidine]-3-carboxamide] | 3.7 | 3.7 | 5.7 | 5.7 | – | – | – | – | – | –
6 | COc1ccc(N(CCc2cccc(C)n2)C(=O)C2CCCCC2)cc1 [MMV675996, N-(4-methoxyphenyl)-N-[2-(6-methylpyridin-2-yl)ethyl]cyclohexanecarboxamide] | 4.9 | 4.9 | 6.0 | 6.0 | – | – | – | – | – | –
7 | Nc1cccnc1Nc1ccc(Cl)cc1 [MMV676524, 2-N-(4-chlorophenyl)pyridine-2,3-diamine] | 12.2 | – | 6.4 | 6.4 | – | poor solubility | Concentration dependent binding | – | – | –
8 | CC1(C)OB(O)c2ccc(C3=NOC(c4cc(Cl)c(F)c(Cl)c4)(C(F)(F)F)C3)cc21 (stereo not shown) [MMV687775, 5-(3,5-dichloro-4-fluorophenyl)-3-(1-hydroxy-3,3-dimethyl-2,1-benzoxaborol-5-yl)-5-(trifluoromethyl)-4H-1,2-oxazole] | 3.9 | 3.9 | 6.6 | 6.6 | – | – | – | – | – | –
9 | CNC(=O)c1nn(C)c2c1C(C)(C)Cc1cnc(Nc3ccc(N4CCN(C)CC4)cc3)nc1-2 [MMV676602, Milciclib, reference compound] | 13.6 | > 12 | 9.5 | 9.5 | – | poor solubility | Concentration dependent binding | – | – | –
10 | COc1cc(NC(C)CCCN)c2ncccc2c1 (stereo not shown) [MMV000023, Primaquine, reference compound] | 21.6 | 21.6 | 10.0 | 10.0 | – | – | Concentration dependent binding | – | – | –
11 | COc1cc(C2=NCCN2)cc2cc(-c3ccc(C4=NCCN4)cc3)oc12 [MMV688362, 2-[4-[5-(4,5-dihydro-1H-imidazol-2-yl)-7-methoxy-1-benzofuran-2-yl]phenyl]-4,5-dihydro-1H-imidazole] | 14.8 | – | 12.6 | 12.6 | – | – | – | – | – | –
12 | O=C(NCCc1c[nH]c2ccccc12)c1cc2ccccc2oc1=O [MMV676539, N-[2-(1H-indol-3-yl)ethyl]-2-oxochromene-3-carboxamide] | 6.4 | 6.4 and > 5 | 6.2 | 6.2 | – | – | – | – | – | –
13 | CS(=O)(=O)c1ccccc1C(=O)N(Cc1ccccc1)c1ccccc1 [MMV688798, N-benzyl-2-methylsulfonyl-N-phenylbenzamide] | 1.3 | 1.3 | 5.2 | 5.2 | – | – | – | – | – | –
14 | CC(=O)Oc1ccccc1C(=O)Nc1ncc([N+](=O)[O-])s1 [MMV688991, Nitazoxanide, reference compound] | 20.0 | – | 8.3 | 8.3 | – | – | – | 85.4 | ~2 | –
15 | CCOC(=O)NC(=O)c1ccsc1NC(=O)c1nc2ccccc2s1 [MMV090930, TCA1, reference compound] | 91.5 | > 5 | 29.5 | 29.5 | – | – | – | 14.2 ± 0.8 | – | ~2.5
